Where a name gives a salt, the structure may show the parent alone.
Columns and labels:
Experiment in all cases: viability inhibition at highest dose (% inhibition); higher = more growth inhibition
T-47D Tam2 = settings: 4-OH-tamoxifen in medium 1 µM; 72 h
Outline: (§1)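 After seeding into 384-well plates with library drugs at five concentrations spanning a 10 000-fold range, breast cancer cell lines and their resistant derivatives were incubated 72 h at 37 °C. Resistant lines received medium with 1 μM of the selecting drug. CellTiter-Glo signal was read on a PHERAstar and scaled to vehicle-only and positive controls. Drug sensitivity score, relative IC50 (the curve midpoint) and top-dose inhibition came from logistic fits run in the Breeze pipeline.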

MCF-7 = settings: 72 h
Outline: as §1

BT-474 Tam2 = settings: 4-OH-tamoxifen in medium 1 µM; 72 h
Outline: as §1

MCF-7 Tam1 = settings: 4-OH-tamoxifen in medium 1 µM; 72 h
Outline: as §1

ZR-75-1 = settings: 72 h
Outline: as §1

T-47D Tam1 = settings: 4-OH-tamoxifen in medium 1 µM; 72 h
Outline: as §1

BT-474 Tam1 = settings: 4-OH-tamoxifen in medium 1 µM; 72 h
Outline: as §1

ZR-75-1 Tam1 = settings: 4-OH-tamoxifen in medium 1 µM; 72 h
Outline: as §1

ZR-75-1 Tam2 = settings: 4-OH-tamoxifen in medium 1 µM; 72 h
Outline: as §1

T-47D = settings: 72 h
Outline: as §1

BT-474 = settings: 72 h
Outline: as §1

SMILES	viability inhibition at highest dose (T-47D Tam2)	viability inhibition at highest dose (MCF-7; 4-OH-tamoxifen in medium 0 µM)	viability inhibition at highest dose (MCF-7; 4-OH-tamoxifen in medium 1 µM)	viability inhibition at highest dose (BT-474 Tam2)	viability inhibition at highest dose (MCF-7 Tam1)	viability inhibition at highest dose (ZR-75-1; 4-OH-tamoxifen in medium 0 µM)	viability inhibition at highest dose (ZR-75-1; 4-OH-tamoxifen in medium 1 µM)	viability inhibition at highest dose (T-47D Tam1)	viability inhibition at highest dose (BT-474 Tam1)	viability inhibition at highest dose (ZR-75-1 Tam1)	viability inhibition at highest dose (ZR-75-1 Tam2)	viability inhibition at highest dose (T-47D; 4-OH-tamoxifen in medium 0 µM)	viability inhibition at highest dose (T-47D; 4-OH-tamoxifen in medium 1 µM)	viability inhibition at highest dose (BT-474; 4-OH-tamoxifen in medium 0 µM)	viability inhibition at highest dose (BT-474; 4-OH-tamoxifen in medium 1 µM)
CCN(CC)CCNC(=O)c1c(C)[nH]c(/C=C2\C(=O)Nc3ccc(F)cc32)c1C (drug 1000 nM)	3.79	-3.88	-9.09	1.68	7.78	5.31	-5.7	6.06	13.8	-5.76	2.39	-6.3	13.4	-3.86	33.8
CN1CC[C@H](c2c(O)cc(O)c3c(=O)cc(-c4ccccc4Cl)oc23)[C@H](O)C1 [Alvocidib (Flavopiridol)] (drug 10000 nM)	38.7	62.9	65	89.5	30.1	50.1	46.6	57.8	96.8	49.9	55.9	29.3	-0.409	9.07	46.1
CN(C)/N=N/c1[nH]cnc1C(N)=O [Dacarbazine] (drug 10000 nM)	-1.82	-17	10.7	6.76	-11.3	-2.8	-13	-0.257	-7.07	0.27	6.57	-8.78	-10	-13	-17.3
CCCCC(=O)OCC(=O)[C@]1(O)Cc2c(O)c3c(c(O)c2[C@@H](O[C@H]2C[C@H](NC(=O)C(F)(F)F)[C@H](O)[C@H](C)O2)C1)C(=O)c1c(OC)cccc1C3=O [Valrubicin] (drug 10000 nM)	63.2	55	77	59.5	30.4	59.8	58.9	67.9	75.8	70.3	85.4	58.2	68.2	42.6	77.1
CN[C@@H]1C[C@H]2O[C@@](C)([C@@H]1OC)n1c3ccccc3c3c4c(c5c6ccccc6n2c5c31)C(=O)N[C@H]4O [UCN-01] (drug 10000 nM)	70.5	90.3	97.1	96.9	96	61.4	61.5	78	96	66.1	73.2	67.6	69.8	74.7	90.7
NC(=O)c1cccc2cn(-c3ccc([C@@H]4CCCNC4)cc3)nc12 [MK-4827] (drug 10000 nM)	14.2	12.1	16.4	21.1	-3.14	11.6	8.9	1.65	42.3	2.04	9.71	20.9	-1.38	-13.3	-7.59
CO[C@H](C(=O)[C@@H](O)[C@@H](C)O)[C@@H]1Cc2cc3cc(O[C@H]4C[C@@H](O[C@@H]5C[C@@H](O)[C@H](O)[C@@H](C)O5)[C@H](O)[C@@H](C)O4)c(C)c(O)c3c(O)c2C(=O)[C@H]1O[C@H]1C[C@@H](O[C@@H]2C[C@@H](O)[C@@H](O[C@@H]3C[C@](C)(O)[C@H](O)[C@@H](C)O3)[C@@H](C)O2)[C@H](O)[C@@H](C)O1 [Plicamycin  (Mithramycin A)] (drug 10000 nM)	58.7	88.9	88.9	95.5	77.5	62.6	63.7	62	95.9	75.3	83.4	68.7	44.3	67.7	95
CCN(CC)CCOc1ccc(C(=C(Cl)c2ccccc2)c2ccccc2)cc1 [Clomifene citrate] (drug 10000 nM)	48.9	12.8	85.5	97.3	57.7	23.4	36.7	40.8	86.8	24.1	42.3	21.6	26.1	85.5	84
O=c1[nH]c(=O)n([C@H]2C[C@H](O)[C@@H](CO)O2)cc1F [Floxuridine] (drug 10000 nM)	21.3	21	1.8	3.04	5.39	22.7	12.6	59	12.3	8.75	18.5	22.3	7.89	30.5	27.9
C[C@@H]1CCN(C(=O)CC#N)C[C@@H]1N(C)c1ncnc2[nH]ccc12 [Tofacitinib (Tasocitinib)] (drug 5000 nM)	-13.3	-15.3	12.9	-10.5	1.13	-2.74	-1.91	-1.37	-11.1	4.16	10.5	3.16	-4.5	0.0745	-12.8
Cc1cc(Nc2nc(N[C@@H](C)c3ncc(F)cn3)ncc2Cl)[nH]n1 [AZD1480] (drug 1000 nM)	3.94	13.1	6.46	-2.54	1.6	-6.08	-11.4	2.99	3.08	-2.1	-3.72	-12.1	-7.24	-2.51	8
